Among the data in BindingDB's records for PubMed 39651809 (Pfizer Inc.) are IC50 values, retold here.

pIC50: −log10 of the molar value.

A word on the pIC50: it is the negative decadic logarithm of the IC50, by convention in mol/L. High values mean a low IC50, low ones a high IC50.

This experiment is described as follows: Inhibition of SLP76 phosphorylation at Ser376 in human Jurkat cells incubated for 30 mins by HTRF assay.
`CCCn1cnnc1-c1cccc(N2Cc3c(cc(N(C)C(C)C)nc3CNC)C2=O)n1` [US11142525, Example 63] gave a negative-log IC50 (pIC50) of 7.06.

In the case of `CNCc1nc(N(C)C)cc2c1CN(c1cccc(-c3nncn3[C@@H](C)CC(F)(F)F)n1)C2=O` [US11142525, Example 17], the negative logarithm of the IC50 (pIC50) is 7.15.

On to `CC(C)n1cnnc1-c1cccc(NC(=O)c2cccc3c2nc(CN)n3C)n1`, for which the negative-log IC50 (pIC50) is 5.97.

Compound `CNCc1nc(N(C)C)cc2c1CN(c1cccc(-c3nncn3C(C)C)n1)C2=O` [US11142525, Example 1] showed a negative-log IC50 (pIC50) of 6.95. This pIC50 is 0.98 log units higher than that of the compound before.

In turn, `CC[C@H](C)n1cnnc1-c1cccc(NC(=O)c2cccc3c2nc(CN)n3C)n1` showed a pIC50 of 6.86.

Regarding `C[C@@H]1CCCN1c1cc2c(c([C@@H](C)N)n1)CN(c1cccc(-c3nnc4n3[C@@H](C)CC4)n1)C2=O` [US11684616, Example 24], the negative logarithm of the IC50 (pIC50) is 7.28.

Compound `COc1ccc2c(c1CN)CN(c1cccc(-c3nncn3[C@@H](C)CC(F)(F)F)n1)C2=O` showed a pIC50 of 6.28.

As to `CNCc1cc(OC)cc2c1CN(c1cccc(-c3nncn3[C@@H](C)CC(F)(F)F)n1)C2=O`, the negative logarithm of the IC50 (pIC50) is 6.94.

Turning to `CNCc1cc(OC)cc2c1CN(c1cccc(-c3nncn3C(C)C)n1)C2=O`, the pIC50 is 6.42.

In turn, `CCCn1cnnc1-c1cccc(N2Cc3c(cc(N(C)C)nc3CNC)C2=O)n1` [US11142525, Example 46] showed a negative logarithm of the IC50 (pIC50) of 6.92.

`CCC(C)n1cnnc1-c1cccc(NC(=O)c2cccc3c2OCC(N)C3)n1` (stereo not drawn) showed a pIC50 of 6.65.

As for `CC[C@@H](N)c1nc(N2CCC[C@H]2C)cc2c1CN(c1cccc(-c3nncn3CC)n1)C2=O` [US11684616, Example 140], the negative-log IC50 (pIC50) is 7.28.

The compound `CC(C)n1cnnc1-c1cccc(NC(=O)c2cccc3c2OCC(N)C3)n1` (stereo not drawn) gave a negative-log IC50 (pIC50) of 5.97.

Regarding `CNCc1nc(N(C)C(C)C)cc2c1CN(c1cccc(-c3nnc4n3[C@@H](C)CC4)n1)C2=O` [US11684616, Example 210], the pIC50 is 7.33.

On to `CCCn1cnnc1-c1cccc(N2Cc3c(cc(N4CCC[C@H]4C)nc3CNC)C2=O)n1` [US11142525, Example 55], for which the negative logarithm of the IC50 (pIC50) was 7.47. The pIC50 values of the last two compounds are within 0.2 log units of each other.

The compound `CCCn1c(C)nnc1-c1cccc(N2Cc3c(cc(N(C)C(C)C)nc3CNC)C2=O)n1` [US11142525, Example 64] showed a negative logarithm of the IC50 (pIC50) of 7.09.

In turn, `CNCc1nc(N(C)C(C)C)cc2c1CN(c1cccc(-c3nnc4n3[C@@H](CF)CC4)n1)C2=O` [US11684616, Example 205] had a negative logarithm of the IC50 (pIC50) of 7.28.

Take `CC[C@H]1CCc2nnc(-c3cccc(N4Cc5c(cc(N(C)C(C)C)nc5CNC)C4=O)n3)n21` [US11684616, Example 201]: the pIC50 is 7.43.
